Measurements taken from patent publication US12054466B2, “Compounds for the treatment of clostridium difficile infection” (University of Notre Dame du Lac, priority 2016, dated 2024).
Where two headings read alike, the source gives them in different places.

Columns and labels:
[1] = cited from earlier work
[2] = tested on: C. difficile; experiment: MIC against C. difficile (strain not named; 14 strains overall); type: cell-based, Clostridium difficile; conditions: 14 C. difficile strains
[3] = tested on: C. difficile infection; conditions: cited from earlier work
[4] = Toxicity and fecal concentration after multiple oral doses
[5] = tested on: C. difficile strain ATCC 43255; experiment: Mouse model of recurrent CDI, survival; conditions: po once a day for 5 days; oxadiazole 2 20 mg/kg/day, vancomycin 50 mg/kg/day
[6] = mouse, in vivo, po, 20 mg/kg, 24 h
[7] = Pharmacokinetics after single po and iv administration
[8] = tested on: C. difficile strain ATCC 43255; experiment: Mouse model of recurrent CDI, second study: fecal cell, spore and toxin evaluation; type: in vivo, mice
Procedure: C. difficile Mouse Model. […] A negative vehicle control will be included. […] This study was conducted in duplicates.
A second study was conducted with oxadiazole 2 given po at 20 or 40 mg/kg for 5 days and vancomycin administered at 50 mg/kg po for 5 days. Fecal samples were collected on days 3, 7, and 10 for C. difficile spore and toxin evaluation.

[9] = tested on: DNA, protein and peptidoglycan synthesis in C. difficile ATCC 43255; experiment: Macromolecular synthesis assays; type: cell-based
Text: Macromolecular synthesis assays. The method of Mathur et al (J Antimicrob Chemother 2011, 66(5), 1087) was used with a few modifications. [2,8-^3H]-adenine (40 Ci/mmol), 1-[3,4,5-^3H(N)]-leucine (120 Ci/mmol), and N-acetyl-d-[6-^3H]-glucosamine (30 Ci/mmol) were purchased from Perkin Elmer (Waltham, MA). Ciproflaxin, linezolid, and oxacillin, were used as positive controls for DNA, protein, and peptidoglycan, respectively. Ciprofloxacin and oxacillin were purchased from Sigma-Aldrich (St. Louis, MO), linezolid was obtained from AmplaChem Inc. (Carmel, IN). […] Aliquots were taken every 30 min for radioactive counting and viability. Optimal incubation times were 60 min for DNA, 180 min for protein, and 120 min for peptidoglycan.

[10] = tested on: C. difficile ATCC43255; experiment: Inhibition of vegetative cells, spores and toxins in exponential phase cells
[11] = summary statement, species not given
[12] = 40 mg/kg/day po for 5 days, uninfected mice
[13] = female, C57B1/6, mouse, feces, po, 40 mg/kg/day

In the case of `FC(F)(F)c1ccc(Oc2ccc(-c3noc(-c4ccc5[nH]ccc5c4)n3)cc2)cc1` [Compound 1], the clearance ([1]; in words) is listed as “low clearance”, the Oral bioavailability [1, 11] is listed as 97% and the Terminal half-life [1, 11] is listed as 18.6 h.
In the case of `CCc1c(Cl)c(O)c(Cl)c(O)c1C(=O)O[C@H]1[C@H](O)[C@H](OC)[C@H](OC/C2=C\C=C\C[C@H](O)/C(C)=C/[C@H](CC)[C@@H](O[C@@H]3OC(C)(C)[C@@H](OC(=O)C(C)C)[C@H](O)[C@@H]3O)/C(C)=C/C(C)=C/C[C@@H]([C@@H](C)O)OC2=O)O[C@@H]1C` [fidaxomicin], the “MIC range in 14 C. difficile strains” value [2] is given as under 0.01 to 0.25 µg/mL, the Treatment failure ([3]; CDI) is given as 12% and the “Patients with recurrence of the infection” value ([3]; patients treated for CDI) is given as “About 25%”.
For `Oc1ccc(-c2nc(-c3ccc(OC4CCCC4)cc3)no2)cc1` [Compound 2], the Tolerability [4, 12] was “well tolerated”, the Weight loss [4, 12] was “did not result in weight loss” and the Body weight ([4]; Day 1, 40 mg/kg/day po for 5 days, uninfected mice) was 19.6 ± 0.6 g. It also gave a Body weight ([4]; Day 2, 40 mg/kg/day po for 5 days, uninfected mice) of 19.8 ± 0.6 g, a Body weight ([4]; Day 3, 40 mg/kg/day po for 5 days, uninfected mice) of 19.8 ± 1.0 g and a Body weight ([4]; Day 4, 40 mg/kg/day po for 5 days, uninfected mice) of 19.7 ± 1.0 g. For the same compound, the Body weight ([4]; Day 5, 40 mg/kg/day po for 5 days, uninfected mice) was 19.4 ± 0.6 g, the “Oxadiazole 2 in Feces” value ([4]; Day 5, 40 mg/kg/day po for 5 days, uninfected mice, 40 mg/kg/day) was 30.8 ± 11.1 μg/g feces and the concentration at 5 day ([4]; female, C57B1/6, mouse, feces, oral, 40 mg/kg) was 30800 ng/mL. For the same compound, the concentration at 1 day [4, 13] was 9800 ± 400 ng/g, the concentration at 2 day [4, 13] was 15000 ± 3700 ng/g and the concentration at 3 day [4, 13] was 18100 ± 2400 ng/g. The concentration at 4 day [4, 13] was 16900 ± 1800 ng/g, the concentration at 5 day [4, 13] was 30800 ± 11100 ng/g and the “Survival after 25 days” value [5] was 70%. The “Level in feces as multiple of MIC” value [6] was “approximately 20 ×MIC”, the “Clearance as share of hepatic blood flow” value ([7]; mice, 20 mg/kg iv) was “approximately 20%” and the “Absolute oral bioavailability F” value ([7]; mice, 20 mg/kg po vs iv, 20 mg/kg) was 4%. For the same compound, the concentration at 24 h ([7]; mouse, feces, po, 20 mg/kg) was 43000 ± 3000 ng/g, the AUC(0-inf) ([7]; mouse, plasma, iv, 20 mg/kg) was 19200 ng·h/mL and the Vd ([7]; mouse, plasma, iv, 20 mg/kg) was 1.8 L/kg. For the same compound, the clearance ([7]; mouse, plasma, iv, 20 mg/kg) was 17.4 mL/min/kg, the half-life ([7]; mouse, plasma, iv, 20 mg/kg) was 1.2 h and the bioavailability ([7]; mouse, plasma, oral, 20 mg/kg, Absolute oral bioavailability F, mice, 20 mg/kg po vs iv) was 3.8%. It also gave an AUC(0-inf) ([7]; mouse, plasma, po, 20 mg/kg) of 733 ng·h/mL, a Cmax ([7]; mouse, plasma, po, 20 mg/kg) of 300 ng/mL and a half-life ([7]; mouse, plasma, po, 20 mg/kg) of 1.1 h. The “Decrease in spores in feces” value ([8]; 20 mg/kg group) was 3 log, the “Total cell counts in feces, lower on day 10 compared to day 3” value ([8]; 20 mg/kg/day for 5 days) was 3.44 log and the Spores in feces ([8]; 40 mg/kg group, days 3, 7 and 10, in words) was “no spores were observed at any time”. The “Toxin production in feces” value ([8]; 40 mg/kg group, in words) was “no toxin production was detected”, the “Total cell counts in feces, lower on day 10 compared to day 3” value ([8]; 40 mg/kg/day for 5 days) was 4.68 log and the “Reduction in spores in feces” value ([8]; b100, 20 mg/kg) was 1.85 log. For the same compound, the “Reduction in vegetative cells in feces by day 10” value ([8]; dose of compound 2 not stated) was “about 3 log”, the “Inhibition of peptidoglycan synthesis” value ([9]; N-acetyl-d-[6-3H]-glucosamine incorporation, ½ MIC, 120 min) was 54.8±3.7% and the “Inhibition of DNA synthesis” value ([9]; [2,8-3H]adenine incorporation, in words) was “not significant”. The “Inhibition of protein synthesis” value ([9]; l-[3,4,5-3H(N)]-leucine incorporation, in words) was “not significant”, the “Concentration that inhibited growth of vegetative cells” value ([10]; 24 hours) was 1 ×MIC and the “Concentration that inhibited toxin production” value ([10]; 24 hours, TcdA and TcdB by ELISA) was 1 ×MIC. The “Concentration that inhibited spore production” value ([10]; 48 hours) was “¼”, the “Concentration that inhibited toxin production” value ([10]; 48 hours) was 1 ×MIC and the “Concentration that inhibited spores” value ([10]; 72 hours) was 1 ×MIC. The “Concentration that inhibited toxin production” value ([10]; 72 hours) was 1 ×MIC and the “Concentration that inhibited vegetative cells” value ([10]; 72 hours) was 1 ×MIC.
